Results as given in US20260206761A1, “HETEROARYL-TRIAZOLE COMPOUNDS AS PESTICIDES” (Bayer Aktiengesellschaft, priority 2019, published 2026).

Columns and labels:
Assay type in all cases: in vivo
[1] = system: Rhipicephalus microplus larvae (strain Parkhurst, resistant against synthetic pyrethroids); assay: Rhipicephalus (Boophilus) microplus in-vitro contact test, larval cattle tick; details: after 48 hours, read-out: activity (efficacy: larvae dead or moribund); for pest or weed control at 100 g/ha: application rate 1 pg/cm^2 (=100 g/ha); for pest or weed control at 500 g/ha: application rate 5 pg/cm^2 (=500 g/ha)
Procedure: Rhipicephalus (Boophilus) microplus—In-Vitro Contact Tests Larval Cattle Tick (Strain Parkhurst. Resistant Against Synthetic Pyrethroids)
(§1) 9 mg compound is solved in 1 mL acetone and diluted with acetone to the desired concentration. 250 μL of the test solution is filled in 25 mL glass test tubes and homogeneously distributed on the inner walls by rotation and tilting on a shaking device (2 h at 30 rpm). With a compound concentration of 900 ppm, an inner surface of 44.7 cm^2 and a homogeneous distribution, a dose of 5 μg/cm^2 is achieved.
After the solvent has evaporated, each test tube is filled with 20-50 cattle tick larvae (Rhipicephalus microplus), closed with a perforated lid and incubated in a horizontal position at 85% relative humidity and 27° C. in an incubator. After 48 hours efficacy is determined. The larvae are patted on the ground of the tubes and negative geotactic behaviour is recorded.
An efficacy of 100% means all larvae are dead or moribund; 0% means no larvae are dead or moribund.

[2] = system: adult engorged female ticks (Rhipicephalus microplus); assay: Rhipicephalus (Boophilus) microplus injection test; details: 168 h, egg deposition after 7 days, read-out: activity (efficacy: infertile eggs); for pest or weed control at 4 pg: application rate 4 pg/animal; for pest or weed control at 0.02 mg: application rate 20 μg/animal
Procedure: Rhipicephalus (Boophilus) microplus—Injection Test
(§2) Solvent: dimethyl sulfoxide
To produce a suitable preparation of active compound, 10 mg of active compound are dissolved in 0.5 mL solvent, and the concentrate is diluted with solvent to the desired concentration.
Five adult engorged female ticks (Rhipicephalus microplus) are injected with 1 μL compound solution into the abdomen. The ticks are transferred into replica plates and incubated in a climate chamber.
After 7 days egg deposition of fertile eggs is monitored. Eggs where fertility is not visible are stored in a climate chamber till hatching after about 42 days. An efficacy of 100% means all eggs are infertile; 0% means all eggs are fertile.

[3] = system: adult unfed cat fleas (Ctenocephalides felis); assay: Ctenocephalides felis oral test; details: 48 h, read-out: activity (mortality)
Procedure: Ctenocephalides felis—Oral Test
as §2
To produce a suitable preparation of active compound, 10 mg of active compound are dissolved in 0.5 mL solvent, and the concentrate is diluted with cattle blood to the desired concentration.
Approximately 20 adult unfed cat fleas (Ctenocephalides felis) are placed in flea chambers. The blood chamber, sealed with parafilm on the bottom, are filled with cattle blood supplied with compound solution and placed on the gauze covered top of the flea chamber, so that the fleas are able to suck the blood. The blood chamber is heated to 37° C. whereas the flea chamber is kept at room temperature.
After 2 days mortality in % is determined. 100% means all the fleas have been killed; 0% means none of the fleas have been killed.

[4] = system: larvae of the banded cucumber beetle (Diabrotica balteata); assay: Diabrotica balteata spray test; details: 168 h, after 7 days, read-out: activity (efficacy: seedlings grown); for pest or weed control at 100 g/ha: application rate 100 g/ha (=32 pg/well); for pest or weed control at 500 g/ha: application rate 500 g/ha (=160 pg/well)
Procedure: Diabrotica balteata—spray test
(§3) Solvent: 78.0 parts by weight of acetone • • 1.5 parts by weight of dimethylformamide
(§4) Emulsifier: alkylarylpolyglycol ether
(§5) To produce a suitable preparation of active compound, 1 part by weight of active compound is mixed with the stated amount of solvent, and the concentrate is diluted with water, containing an emulsifier concentration of 1000 ppm, to the desired concentration. Further test concentrations are prepared by dilution with emulsifier containing water.
Soaked wheat seeds (Triticum aestivum) are placed in a multiple well plate filled with agar and some water and are incubated for 1 day to germinate (5 seeds per well). The germinated wheat seeds are sprayed with a test solution containing the desired concentration of the active ingredient. Afterwards each unit is infected with 10-20 larvae of the banded cucumber beetle (Diabrotica balteata).
After 7 days efficacy in % is determined. 100% means all the seedlings have grown up like in the untreated, uninfected control; 0% means none of the seedlings have grown.

[5] = system: fall armyworm larvae (Spodoptera frugiperda); assay: Spodoptera frugiperda spray test; details: 168 h, read-out: activity (mortality)
Procedure: Spodoptera frugiperda—Spray Test
Solvent: 78.0 parts by weight acetone • 1.5 parts by weight dimethylformamide
as §4
as §5, with “solvents” for “solvent,”, “and” for “and the concentrate”
Maize (Zea mays) leaf sections are sprayed with a preparation of the active ingredient of the desired concentration. Once dry, the leaf sections are infested with fall armyworm larvae (Spodoptera frugiperda).
After 7 days mortality in % is determined. 100% means all caterpillars have been killed and 0% means none of the caterpillars have been killed.

[6] = system: Aedes aegypti strain MONHEIM; assay: Aedes aegypti test (AEDSAE surface treatment & contact assay); details: 24 hours after contact, read-out: efficacy (mortality); for mortality at 4 mg/m2: surface concentration 4 mg/m^2, exposure 30 minutes; for mortality at 20 mg/m2: surface concentration 20 mg/m^2, exposure 30 minutes
Procedure: Aedes aegypti Test (AEDSAE Surface Treatment & Contact Assay)
Solvent: Aceton+2000 ppm rapeseed oil methyl ester (RME)
In order to produce a sufficient, active ingredient containing solution it is necessary to solve the test compound in the solvent-mix (acetone at 2 mg/ml/RME 2000 ppm). This solution is pipetted onto a glazed tile and after evaporation of the acetone, adult mosquitoes of the species Aedes aegypti strain MONHEIM are placed onto the dried surface. The exposure time is 30 minutes. Mortality in percent (%) is determined 24 hours after contact of the insects to the treated surface. 100% mortality means that all tested insects are dead, whereas 0% means that no insect died.

[7] = system: green peach aphid (Myzus persicae); assay: Myzus persicae oral test; details: 120 h, application rate 4 ppm, after 5 days
Procedure: Solvent: 100 parts by weight acetone
To produce a suitable preparation of active compound, 1 part by weight of active compound is mixed with the stated amount of solvent, and the concentrate is diluted with water to the desired concentration.
50 μL compound solution is filled in microtiter plates and 150 μL IPL41 insect medium (33%+15% sugar) is added to obtain a total volume of 200 μL per well. Afterwards the plates are sealed with parafilm through which a mixed population of the green peach aphid (Myzus persicae) can suck on the compound preparation.
After 5 days mortality in % is determined. 100% means all aphids have been killed and 0% means none of the aphids have been killed.

[8] = system: larvae of the southern green stink bug (Nezara viridula); assay: Nezara viridula spray test; details: 96 h, application rate 500 g/ha, after 4 days
Procedure: Nezara viridula—Spray Test
as §3, §4, §5
Barley plants (Hordeum vulgare) infested with larvae of the southern green stink bug (Nezara viridula) are sprayed with a test solution containing the desired concentration of the active ingredient.
After 4 days mortality in % is determined. 100% means all the stink bugs have been killed; 0% means none of the stink bugs have been killed.

[9] = system: adult brown dog ticks (Rhipicephalus sanguineus); assay: Rhipicephalus sanguineus in-vitro contact test, adult brown dog ticks; details: after 48 hours, read-out: activity (efficacy: ticks dead or moribund); for pest or weed control at 5 µg/cm2, 500 g/ha: application rate 5 μg/cm^2 (=500 g/ha); for pest or weed control at 100 g/ha: application rate 1 pg/cm^2 (=100 g/ha)
Procedure: Rhipicephalus sanguineus—In-Vitro Contact Tests with Adult Brown Dog Ticks
as §1
After the solvent has evaporated, each test tube is filled with 5-10 adult brown dog ticks (Rhipicephalus sanguineus), closed with a perforated lid and incubated in a lying position at room temperature and relative humidity. After 48 hours efficacy is determined. The ticks are patted on the ground of the tubes and are incubated on a heating plate at 45-50° C. for at most 5 minutes. Immotile or uncoordinated moving ticks, which are not able to escape the heat by climbing upwards, are marked as dead or moribund.
An efficacy of 100% means all ticks are dead or moribund; 0% means no ticks are dead or moribund.

SMILES	pest or weed control at 100 g/ha [1] [%]	pest or weed control at 500 g/ha [1] [%]	pest or weed control at 4 pg [2] [%]	pest or weed control at 0.02 mg [2] [%]	mortality at 100 ppm [3] [%]	pest or weed control at 100 g/ha [4] [%]	pest or weed control at 500 g/ha [4] [%]	mortality at 500 g/ha [5] [%]	mortality at 4 mg/m2 [6] [%]	mortality at 4 ppm [7] [%]	mortality at 100 g/ha [5] [%]	mortality at 20 mg/m2 [6] [%]	mortality at 500 g/ha [8] [%]	pest or weed control at 5 µg/cm2, 500 g/ha [9] [%]	pest or weed control at 100 g/ha [9] [%]
CCCc1nc([C@H](C)NC(=O)c2cc(Cl)cc(C3CC3)c2)n(-c2ccc(C#N)cn2)n1 [I-1]	100	100	100	100	100	100	100	100	80 to 100	–	–	–	–	–	–
CC(NC(=O)c1cc(Cl)cc(S(C)(=O)=O)c1)c1nc(C(F)F)nn1-c1ccc(C#N)cn1 (centres unmarked) [I-6]	100	100	100	100	100	–	–	100	–	100	83	–	–	–	–
COc1nc([C@H](C)NC(=O)c2csc(Cl)c2)n(-c2ccc(C#N)cn2)n1 [I-8]	–	–	80	100	80	80	100	–	80 to 100	–	–	80 to 100	–	–	–
CCOc1nc([C@H](C)NC(=O)c2cc(Cl)cc(S(C)(=O)=O)c2)n(-c2ccc(C#N)cn2)n1 [I-9]	100	100	100	100	100	–	100	100	–	100	100	–	–	–	–
C[C@H](NC(=O)c1cc(Cl)cc(S(=O)(=O)CC(F)(F)F)c1)c1nc(C2CC2)nn1-c1ncc(Cl)cn1 [I-26]	90	90	100	100	100	100	–	–	–	90	–	–	–	–	–
CC(NC(=O)c1cc(Cl)cc(S(C)(=O)=O)c1)c1nc(Br)nn1-c1ccc(Cl)cn1 (centres unmarked) [I-28]	100	100	100	100	100	100	100	100	–	90	100	–	100	–	–
CC(NC(=O)c1cc(C(F)(F)F)n(C)n1)c1nc(Cl)nn1-c1ncccn1 (centres unmarked) [I-31]	100	100	100	100	90	–	–	–	–	90	–	–	–	–	–
CC(NC(=O)c1cc(C(F)(F)F)n(C)n1)c1nc(Cl)nn1-c1ccc(C#N)cn1 (centres unmarked) [I-33]	100	100	80	80	100	–	–	–	–	–	–	–	–	80	–
CC(NC(=O)c1cc(C(F)(F)F)n(C)n1)c1nc(Br)nn1-c1ncccn1 (centres unmarked) [I-39]	100	100	100	–	100	–	–	–	–	–	–	–	–	80	80
CC(NC(=O)c1cc(Br)cc(C2(C(F)(F)F)CC2)c1)c1nc(Cl)nn1-c1ncccn1 (centres unmarked) [I-47]	90	90	100	100	80	100	–	–	80 to 100	100	100	80 to 100	–	–	–
CC(NC(=O)c1cc(Br)cc(C2(C(F)(F)F)CC2)c1)c1nc(Br)nn1-c1ncccn1 (centres unmarked) [I-48]	90	90	100	–	100	–	–	–	–	100	100	–	–	–	–
Cc1nc([C@H](C)NC(=O)c2csc(Cl)c2)n(-c2cc(C#N)ccn2)n1 [II-19]	–	–	100	100	100	–	100	–	80 to 100	–	–	–	–	–	–
C[C@H](NC(=O)c1cc(Cl)cc(S(C)(=O)=O)c1)c1ncnn1-c1ncc(I)s1 [II-51, 3-chloro-N-{(1S)-1-[1-(5-iodo-1,3-thiazol-2-yl)-1H-1,2,4-triazol-5-yl]ethyl}-5-(methylsulfonyl)benzamide]	100	100	100	100	100	100	–	–	–	–	100	–	–	–	80
